Reference: BigSolDB 2.1

NC(=O)N/N=C/c1ccc([N+](=O)[O-])o1
solubility (mole fraction)
Settings | in DMF | in acetone | in acetonitrile | in ethanol | in formamide | in isopropanol | in methanol | in n-propanol | in water
278.15 K | 0.0219 | 0.000298 | 8.46e-05 | 6.97e-05 | 0.00169 | 7.04e-05 | 0.000148 | 8.53e-05 | 1.31e-05
283.15 K | 0.0227 | 0.000345 | 0.000103 | 8.33e-05 | 0.00191 | 9.57e-05 | 0.000172 | 0.000106 | 1.62e-05
288.15 K | 0.0235 | 0.000392 | 0.000123 | 0.0001 | 0.00208 | 0.000113 | 0.000201 | 0.00013 | 1.88e-05
293.15 K | 0.0246 | 0.000443 | 0.000146 | 0.000121 | 0.00239 | 0.000131 | 0.000233 | 0.000149 | 2.29e-05
298.15 K | 0.0265 | 0.000512 | 0.000176 | 0.000143 | 0.00267 | 0.000169 | 0.000282 | 0.000188 | 2.92e-05
303.15 K | 0.028 | 0.000568 | 0.000211 | 0.000175 | 0.00298 | 0.000216 | 0.000326 | 0.000236 | 3.66e-05
308.15 K | 0.0289 | 0.000647 | 0.000247 | 0.000213 | 0.00334 | 0.000262 | 0.000387 | 0.000285 | 4.5e-05
313.15 K | 0.0305 | 0.000738 | 0.000288 | 0.000253 | 0.00364 | 0.000344 | 0.00044 | 0.000368 | 5.89e-05
